Measured values from US11066379B2 (THE TEXAS A&M UNIVERSITY SYSTEM, priority 2018, dated 2021).
Several values for one entry are separate records, joined by “and”; a condition that tells them apart may be missing. Equal values may be shown once. Read-outs that look alike come from different tables or passages of the source.

Columns and labels:
[1] = tested on: mitochondrial membrane permeability transition pore (mPTP) in SH-SY5Y cells; assay: Mitochondrial membrane permeability transition pore (mPTP) measurement, TBHP-induced opening; type: cell-based, human; settings: 1 mM TBHP
Experimental: The blockage of mPTP by compounds was determined with the MitoProbe Transition Assay Kit following manufacturer's instructions. Briefly, SH-SY5Y human neuroblastoma cells were re-suspended in pre-warmed PBS/Ca^+2 buffer at a final concentration of 1×10^6 cells/mL. Cells were loaded with 0.01 μM Calcein-AM and incubated at 37° C. for 15 min. Then, 0.4 mM CoCl2 and compounds at selected concentrations were added and incubated for 15 min at 37° C. […] After this incubation, cells were centrifuged and re-suspended in 100 μL of PBS. Just before analyzing, 1 mM tert-butyl hydroperoxide (TBHP) was added to the samples to induce pore opening. Fluorescence intensity was measured at 488 nm excitation and 517 nm emission wavelengths by flow cytometry using the ImageStreamMKII (Amnis Corporation, Merck-Millipore) and […] software. The fluorescence of 10,000 events was analyzed with IDEASR Application vs 6.0 (Amnis Corporation, Merck-Millipore). Experiments were carried out four times.

SH-SY5Y cells [2] = assay: Cellular toxicity in SH-SY5Y cells (MTT, 24 h); type: cell-based; settings: for cytotoxicity toward SH-SY5Y cells: 10-0.01 μM, in words; for IC50: Homo sapiens, SH-SY5Y, read-out: IC50 (cellular toxicity)
Excerpt: The MTT (3-[4,5-dimethylthiazol-2-yl]-2,5-diphenyltetrazoliumbromide) assay was used to determine the cytotoxicity of gracilin derivatives in T lymphocytes (Burton, J. D. Methods Mol. Med., 2005, 110, 69-78) and SH-SY5Y cells and the protective effect of these compounds against H2O2 insult in neuroblastoma cells as previously described (Leiros, M., Alonso, E., Sanchez, J. A., Rateb, M. E., Ebel, R., Houssen, W. E., Jaspars, M., Alfonso, A. and Botana, L. M. ACS Chem. Neurosci., 2014, S, 71-80). Human T lymphocytes were cultured in 24 well plates at the concentration of 2.5×10^6 cells/mL and exposed to different compound concentrations (0.01, 0.1, 1 and 10 μM) added to the culture medium. Human T cells were maintained in the presence of the pure compound at 37° C. in humidified 5% CO2/95% air atmosphere for 48 h.
(§1) SH-SY5Y cells were seeded in 96-well plates at a density of 2.5×10^5 cells/mL and allowed to adhere for 24 h. At first, cells were treated only with compounds at concentrations ranging from 10-0.01 μM for 24 h to determine their possible cytotoxic effects. Experiments were carried out three times. For neuroprotective experiments, cells were treated with compounds at non-toxic concentrations (1 μM→1 nM) and 150 μM H2O2 for 6 h. Briefly, cells were washed three times with saline solution and 200 μL of MTT (500 μg/mL) dissolved in saline buffer were added to each well. Following 1 h of incubation at 37° C., the cells were disaggregated with sodium dodecyl sulphate at 5%.
Absorbance of formazan crystals was measured at 595 nm with a spectrophotometer plate reader. Saponin was used as death control and its absorbance was subtracted from the other data. All experiments were performed four times.

SH-SY5Y cells [3] = assay: Neuroprotection against H2O2 toxicity, cell viability by MTT; type: cell-based, human; settings: 150 μM H2O2 co-treatment 6 h; 0.01, 0.1 and 1 μM
Experimental: as §1, with “5%. Absorbance of formazan crystals was measured at 595 nm with a spectrophotometer plate reader. Saponin was used as death control and its absorbance was subtracted from the other data. All experiments were performed four times.” for “5%.”

SH-SY5Y cells [4] = assay: Glutathione assay (Thiol Tracker Violet) after H2O2; type: cell-based, human; settings: 150 μM H2O2 co-treatment 6 h, two or more concentrations
Experimental: Glutathione (GSH) levels were determined using Thiol Tracker Violet dye, which reacts with reduced thiols in cells. Reduced glutathione represents the majority of intracellular free thiols, so this probe can be used to estimate its levels in cells. Measurements were performed following manufacturer's protocol. Cells were seeded in 96-well plates at 2.5×10^5 cells/mL for 24 h and treated with compounds at various concentrations (1 μM→1 nM) and 150 μM H2O2. After 6 h, SH-SY5Y cells were washed twice with PBS and loaded with 100 μL of prewarmed Thiol Tracker Violet dye (10 μM) for 30 min at 37° C. The fluorescence was measured at 404 nm excitation and emission at 526 nm. All experiments were performed four times.

[5] = biological target: T1, active human CypA protein (Homo sapiens, UniProt P62937); assay: Binding to immobilized CypA by surface plasmon resonance (SPR); settings: for immunosuppressive activity (SAR profile, FIG. 2): in words, CypA binding / IL-2 inhibition
T1 construct: Active human CypA full-length protein was from Abcam; purchased Abcam
T1 sequence (P62937 whole entry): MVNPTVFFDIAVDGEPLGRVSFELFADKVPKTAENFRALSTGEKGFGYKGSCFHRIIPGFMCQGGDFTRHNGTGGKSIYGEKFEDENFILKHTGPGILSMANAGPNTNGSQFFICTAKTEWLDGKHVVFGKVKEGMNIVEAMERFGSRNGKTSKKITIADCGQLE
Experimental: Sensor surface activation and ligand immobilization were performed by using HBS-EP as running buffer at a flow rate of 5 μL/min and 25° C. CM5 sensor chips were used as surface where Cyp A or D was immobilized as ligand. The CM5 chip is a glass slide coated with a thin layer of gold with a matrix of carboxymethylated dextran covalently attached. The CM5 chip was activated using an amine coupling kit. […] After activation, the ligand, 100 μg/mL of active human CypA protein dissolved in sodium acetate 10 mM at pH 4.5 was added to be immobilized over a CM5 sensor chip. Finally ethanolamine-HCl was injected to deactivate the remaining active esters and to avoid non-specific binding. […] Once analytes were tested and interaction was observed, individual binding curves were analyzed by determining the kinetic constants of analytes-CypA binding, namely, the observed rate constant (Kobs), the association rate constant (Kass), the dissociation rate constant (Kdiss), and the kinetic equilibrium dissociation constant (KD). At equilibrium, by definition, […]. The pseudo-first order association rate constants Kobs (s^-1) were determined for each compound concentration by using the 1:1 Langmuir association model of BiaEvaluation software (BiaCore, Uppsala, Sweden). Then a representation of Kobs against the corresponding concentration of each compound was done. […] From the equation of these representations, Kass, M^-1 s^-1, gradient of the plot, and […]^-1, intercept of the plot was obtained. Within these two values, the kinetic equilibrium dissociation constant KD for each analyte-CypA binding was obtained. The duration of the sample injection was 2 min at 10 μL/min flow rate. Next, dissociation of bound molecules in HBS-EP buffer flow was studied. The bound drugs were removed from the chip surface before the next injection by adding 1 M Glycine-HCl at pH 2.5 for 1 min. The association phase was used to quantify the compound-CypA or D interactions. All experiments were performed four times.

In the case of `CC(=O)O[C@H]1OC[C@@H]2C=C([C@@]3(C)CCCC(C)(C)C3)CC[C@H]12` [Compound 29a, (1R,3aR,7aS)-5-(1,3,3-trimethylcyclohexyl)-1,3,3a,6,7,7a-hexahydroisobenzofuran-1-yl acetate], the mPTP opening [1] is reported as “prevent TBHP-induced opening”, the “cytotoxicity toward SH-SY5Y cells” value (SH-SY5Y cells [2]; 24 h) is reported as “led to cell death at the higher concentrations tested” and the IC50 (SH-SY5Y cells [2]; 24 h) is reported as 16.5 µM. For the same compound, the “protection of cell viability against H2O2 insult” value (from here on “protection of cell viability”) (SH-SY5Y cells [3]) was “protected cells against H2O2 insult at almost all concentrations”, the GSH levels (SH-SY5Y cells [4]) was “recovered GSH levels” and the Kd ([5]; SPR, immobilized CypA) was ~3 µM and 2.8 to 6.8 µM.
`CC(=O)O[C@@H]1OC[C@H]2C=C(C3(C)CCCCC3)CC[C@@H]12` [Compound 27a, (1S,3aS,7aR)-5-(1-methylcyclohexyl)-1,3,3a,6,7,7a-hexahydroisobenzofuran-1-yl acetate] was tested, and the mPTP opening [1] was “prevent TBHP-induced opening”, the “cytotoxicity toward SH-SY5Y cells” value (SH-SY5Y cells [2]; 24 h) was “led to cell death at the higher concentrations tested” and the “protection of cell viability” value (SH-SY5Y cells [3]) was “protected cells against H2O2 insult at almost all concentrations”. The GSH levels (SH-SY5Y cells [4]) was “recovered GSH levels” and the “immunosuppressive activity (SAR profile, FIG. 2)” value [5] was “inactive”.
In the case of `CC(=O)O[C@H]1O[C@@H](OC(C)=O)[C@@H]2CC[C@](O)(C3(C)CCCC(C)(C)C3)C[C@H]12` (stereo partly drawn) [Compound 22, (1S,3R,3aS,5R,7aR)-5-hydroxy-5-(1,3,3-trimethylcyclohexyl)octahydroisobenzo-furan-1,3-diyl diacetate], the mPTP opening [1] is reported as “prevent TBHP-induced opening”, the “cytotoxicity toward SH-SY5Y cells” value (SH-SY5Y cells [2]; 24 h) is reported as “led to cell death at the higher concentrations tested” and the IC50 (SH-SY5Y cells [2]; 24 h incubation) is reported as 6.5 µM. The “protection of cell viability” value (SH-SY5Y cells [3]) was “protected cells against H2O2 insult at almost all concentrations”, the GSH levels (SH-SY5Y cells [4]) was “recovered GSH levels” and the “immunosuppressive activity (SAR profile, FIG. 2)” value [5] was “inactive”.
